In US20120065126A1, “Pharmaceutical Compositions Containing Antifungal Peptides” (BASF SE, priority 2009, published 2012):

Key:
[1] = test system: E. coli (Stratagene, BLR); assay: P18 in pharmaceutical base formulation (CFU); format: cell-based, Escherichia coli; conditions: mixed 1:9 with suspension
Procedure: The aim of the experiment was to study the effect of a pharmaceutical base formulation containing the P18 peptide ingredient (P18 sequence H-KWKLFKKIPKFLHLAKKF-NH2 (Bachem AG, Switzerland)). For this purpose, the following base formulation was used: […]
(§1) 1% hydroxycellulose 10% propylene glycol made up with water.
Based on the base formulation, formulations with rising P18 concentrations (500 ppm to 10 000 ppm) were prepared from a 20% concentrate solution.
The effect of the formulations on E. coli (Stratagene, BLR) was studied.
LB growth medium (Becton, Dickinson and Company, Sparks, USA) […] make up to 1 liter, set pH 7
The growth test was effected as follows: 5 ml of LB medium were inoculated with E. coli and incubated at 37° C. and 200 rpm overnight.
1.5 ml reaction vessels were each filled with 1 ml of LB medium and inoculated with the E. coli suspension from the overnight culture such that an optical density, measured at 600 nm, of 0.1 was obtained at the start of the experiment. The resulting E. coli suspension was mixed in a ratio of 1:9 (formulation: E. coli suspension) with the formulations. 1 μl of the culture was diluted with 20 μl of LB medium after 5 minutes, 10 minutes, 20 minutes and 60 minutes, and then plated out. After incubation over 24 hours, the colonies on the plates were counted.

[2] = test system: S. epidermidis (DSM 1798); assay: P18 in pharmaceutical base formulation (CFU); format: cell-based, Staphylococcus epidermidis; conditions: 10 000 ppm in the formulation, mixed 1:9 with suspension
Procedure: The aim of the experiment was to study the effect of a pharmaceutical base formulation containing the P18 peptide ingredient (P18 sequence H-KWKLFKKIPKFLHLAKKF-NH2 (Bachem AG, Switzerland)) on further fungi and bacteria. For this purpose, the following base formulation was used: […]
as §1
Based on the base formulation, formulations containing 10 000 ppm of P18 peptide were prepared from a 20% concentrate solution.
The effect of the formulations on S. epidermidis (DSM 1798), M. furfur (DSM 6170) and T. rubrum (DSM 21146) was studied.
TSBY growth medium for S. epidermidis Ready-made TSB medium (Becton, Dickinson and Company, Sparks, USA) 17 g of pancreatin-degraded casein 3 g of pancreatin-degraded soya 2.5 g of dextrose 5 g of sodium chloride 2.5 g of dipotassium phosphate 3 g of yeast extract (Becton, Dickinson and Company, Sparks, USA) make up to 1 liter, set pH 7 […]
1.5 ml reaction vessels were each filled with 1 ml of medium and inoculated with the fungal or bacterial suspension from the overnight culture such that the resulting suspensions at the start of the experiment had been adjusted to an optical density, measured at 600 nm, of 0.1. […] After incubation over 24 hours, the colonies on the plates were counted.

[3] = test system: M. furfur DSM 6170; assay: Comparison of the efficacy of P18 and AFPP in a shampoo formulation (CFU); format: cell-based, Malassezia furfur; conditions: 1:10 with culture medium
Procedure: In order to study the efficacy of AFPP compared to P18 (SEQ ID NO. 3; sequence: KWKLFKKIPKFLHLAKKF-NH2 (Bachem AG, Switzerland)) in a shampoo formulation, the experiment described in Example 24 was repeated with a shampoo formulation.
Both peptides were present as 2% (w/w) solutions in phosphate buffer (10 mM sodium phosphate, pH 7.5, 100 mM NaCl).
Peptide solution with a final concentration of 0.1% and 0.2% was added to the shampoo formulation. The resulting formulations were stirred over 16 hours in order to obtain homogeneous solutions. The same procedure was repeated with equivalent volumes of the phosphate buffer in order to rule out any influence of the phosphate buffer on the test results.
The growth test was effected as follows: a shake culture containing M472 Pityrosporum medium was inoculated with M. furfur DSM 6170 (DSMZ) and incubated with shaking at 30° C. and 200 rpm overnight.
For each test mixture, a 1.5 ml reaction vessel was filled with Pityrosporum medium and inoculated with the M. furfur overnight culture to give a start OD of 0.1, measured at 600 nm.
The growth of the following test mixtures was monitored: • M. furfur suspension and addition of phosphate buffer in shampoo formulation in an equivalent amount to the volumes which were added with peptide-shampoo solution (in order to rule out any influence of the phosphate buffer on the effect of the active peptides at concentrations in the shampoo formulation of 0.1% or 0.2%) • M. furfur suspension and shampoo formulation with a P18 concentration of 0.1% • M. furfur suspension and shampoo formulation with a P18 concentration of 0.2% • M. furfur suspension and shampoo formulation with an AFPP concentration of 0.1% • M. furfur suspension and shampoo formulation with a final AFPP concentration of 0.2%
The ratio of the shampoo formulation to the M. furfur culture medium was 1:10 in all test mixtures (shampoo formulation: M. furfur culture medium). The reaction volume was 1 ml.
The growth of M. furfur in the test mixtures was observed over a period of 20 minutes. For this purpose, the mixtures were diluted in M472 medium in a ratio of 1:10 after 10 minutes and 20 minutes, and then 10 μl were plated out. The CFU (colony forming units) were determined by counting after incubation at 30° C. for 6 days.
The experiments were effected in double determination and were independently repeated at least once.

In the case of “H-KWKLFKKIPKFLHLAKKF-NH2 [P18, H-KWKLFKKIPKFLHLAKKF-NH2]”, the “Colony forming units after the incubation time specified” value (shortened to “Colony forming units”) ([1]; 10 000 ppm in the formulation, 5 minutes) is reported as 1778 ± 314 CFU, the “Colony forming units” value ([1]; 10 000 ppm in the formulation, 10 minutes) is reported as 901 ± 120 CFU and the “Colony forming units” value ([1]; 10 000 ppm in the formulation, 20 minutes) is reported as 226 ± 286 CFU. For the same substance, the “Colony forming units” value ([1]; 10 000 ppm in the formulation, 60 minutes) was 7.75 ± 9.5 CFU, the “Colony forming units” value ([1]; 500 ppm in the formulation, 5 minutes) was 2000 ± 0 CFU and the “Colony forming units” value ([1]; 500 ppm in the formulation, 10 minutes) was 2000 ± 0 CFU. For the same substance, the “Colony forming units” value ([1]; 500 ppm in the formulation, 20 minutes) was 2000 ± 0 CFU, the “Colony forming units” value ([1]; 500 ppm in the formulation, 60 minutes) was 709 ± 451 CFU and the “Colony forming units” value ([1]; 1000 ppm in the formulation, 5 minutes) was 2000 ± 0 CFU. The “Colony forming units” value ([1]; 1000 ppm in the formulation, 10 minutes) was 2000 ± 0 CFU, the “Colony forming units” value ([1]; 1000 ppm in the formulation, 20 minutes) was 1619 ± 534 CFU and the “Colony forming units” value ([1]; 1000 ppm in the formulation, 60 minutes) was 332 ± 236 CFU. The “Colony forming units” value ([1]; 2000 ppm in the formulation, 5 minutes) was 2000 ± 0 CFU, the “Colony forming units” value ([1]; 2000 ppm in the formulation, 10 minutes) was 2000 ± 0 CFU and the “Colony forming units” value ([1]; 2000 ppm in the formulation, 20 minutes) was 733 ± 349 CFU. For the same substance, the “Colony forming units” value ([1]; 2000 ppm in the formulation, 60 minutes) was 93 ± 127 CFU, the “Colony forming units” value ([1]; 5000 ppm in the formulation, 5 minutes) was 2000 ± 0 CFU and the “Colony forming units” value ([1]; 5000 ppm in the formulation, 10 minutes) was 1225 ± 339 CFU. The “Colony forming units” value ([1]; 5000 ppm in the formulation, 20 minutes) was 411 ± 516 CFU, the “Colony forming units” value ([1]; 5000 ppm in the formulation, 60 minutes) was 29 ± 36 CFU and the “Colony forming units” value ([2]; 5 minutes) was 790 ± 393 CFU. For the same substance, the “Colony forming units” value ([2]; 60 minutes) was 513 ± 20 CFU, the “Colony forming units” value ([3]; 0.1% in the shampoo formulation, 10 minutes) was 80 ± 10 CFU and the “Colony forming units” value ([3]; 0.1% in the shampoo formulation, 20 minutes) was 38 ± 21 CFU. For the same substance, the “Colony forming units” value ([3]; 0.2% in the shampoo formulation, 10 minutes) was 21 ± 17 CFU and the “Colony forming units” value ([3]; 0.2% in the shampoo formulation, 20 minutes) was 3 ± 1 CFU.
